Experiments:
P2Y purinoceptor 4 [1] = biological target: T1, P2Y purinoceptor 4 (Homo sapiens, UniProt P51582); experiment: Agonist activity at human recombinant P2Y4 receptor expressed in human 1321N1 cells assessed as [3H]inositol phosphate intracellular accumulation by scintillation proximity assay; assay type: functional, cell-based
P2Y purinoceptor 6 [2] = biological target: T2, P2Y purinoceptor 6 (Homo sapiens, UniProt Q15077); experiment: Agonist activity at human recombinant P2Y6 receptor expressed in human 1321N1 cells assessed as [3H]inositol phosphate intracellular accumulation by scintillation proximity assay; assay type: functional, cell-based
P2Y purinoceptor 2 [3] = biological target: T3, P2Y purinoceptor 2 (Homo sapiens, UniProt P41231); experiment: Agonist activity at human recombinant P2Y2 receptor expressed in human 1321N1 cells assessed as [3H]inositol phosphate intracellular accumulation by scintillation proximity assay; assay type: functional, cell-based
P2Y purinoceptor 2 [4] = biological target: T3, P2Y purinoceptor 2; experiment: Agonist activity at P2Y2 receptor; assay type: functional
P2Y purinoceptor 4 [5] = biological target: T1, P2Y purinoceptor 4; experiment: Agonist activity at P2Y4 receptor; assay type: functional
P2Y purinoceptor 6 [6] = biological target: T2, P2Y purinoceptor 6; experiment: Agonist activity at P2Y6 receptor; assay type: functional
Homo sapiens [7] = species on record: Homo sapiens; experiment: Selectivity ratio of EC50 for human P2Y4 receptor to EC50 for human P2Y2 receptor
Homo sapiens [8] = species on record: Homo sapiens; experiment: Selectivity ratio of EC50 for human P2Y6 receptor to EC50 for human P2Y2 receptor
Homo sapiens [9] = species on record: Homo sapiens; experiment: Selectivity ratio of EC50 for human P2Y2 receptor to EC50 for human P2Y4 receptor
Homo sapiens [10] = species on record: Homo sapiens; experiment: Selectivity ratio of EC50 for human P2Y6 receptor to EC50 for human P2Y4 receptor
Homo sapiens [11] = species on record: Homo sapiens; experiment: Selectivity ratio of EC50 for human P2Y2 receptor to EC50 for human P2Y6 receptor
Homo sapiens [12] = species on record: Homo sapiens; experiment: Selectivity ratio of EC50 for human P2Y4 receptor to EC50 for human P2Y6 receptor
P2Y purinoceptor 2 [13] = biological target: T3, P2Y purinoceptor 2; experiment: Ratio of compound EC50 to UDP EC50 for human recombinant P2Y2 receptor

T2 sequence (Q15077 whole entry): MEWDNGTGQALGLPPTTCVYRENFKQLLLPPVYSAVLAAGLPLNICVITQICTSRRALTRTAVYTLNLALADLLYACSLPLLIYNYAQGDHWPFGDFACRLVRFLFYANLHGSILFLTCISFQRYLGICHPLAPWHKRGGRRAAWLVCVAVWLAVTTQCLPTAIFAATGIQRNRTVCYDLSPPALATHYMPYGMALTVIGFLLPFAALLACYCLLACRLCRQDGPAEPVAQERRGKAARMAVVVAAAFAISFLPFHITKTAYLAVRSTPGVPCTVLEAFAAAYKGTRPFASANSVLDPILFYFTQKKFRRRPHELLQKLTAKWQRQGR
T1 sequence (P51582 whole entry): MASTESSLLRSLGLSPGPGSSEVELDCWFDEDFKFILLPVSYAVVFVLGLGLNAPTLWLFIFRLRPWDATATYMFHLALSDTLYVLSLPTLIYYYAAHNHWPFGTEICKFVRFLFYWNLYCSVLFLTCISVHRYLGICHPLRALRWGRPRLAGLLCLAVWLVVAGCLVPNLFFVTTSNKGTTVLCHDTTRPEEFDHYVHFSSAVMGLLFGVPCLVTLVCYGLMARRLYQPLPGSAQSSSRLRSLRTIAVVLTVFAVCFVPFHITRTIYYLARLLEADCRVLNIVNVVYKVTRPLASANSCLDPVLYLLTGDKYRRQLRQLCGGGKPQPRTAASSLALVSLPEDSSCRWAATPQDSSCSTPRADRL
T3 sequence (P41231 whole entry): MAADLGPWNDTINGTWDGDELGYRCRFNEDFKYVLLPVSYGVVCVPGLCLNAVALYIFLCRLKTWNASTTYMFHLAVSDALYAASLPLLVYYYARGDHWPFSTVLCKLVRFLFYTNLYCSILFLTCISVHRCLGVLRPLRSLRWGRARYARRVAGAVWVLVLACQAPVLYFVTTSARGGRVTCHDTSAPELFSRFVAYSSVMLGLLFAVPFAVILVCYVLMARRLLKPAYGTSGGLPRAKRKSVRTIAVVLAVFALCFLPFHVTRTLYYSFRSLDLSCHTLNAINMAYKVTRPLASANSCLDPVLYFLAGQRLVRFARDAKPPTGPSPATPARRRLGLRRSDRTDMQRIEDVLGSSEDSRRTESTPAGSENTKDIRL

Row | Compound | EC50 (P2Y purinoceptor 4 [1]) [µM] | EC50 (P2Y purinoceptor 6 [2]) [µM] | EC50 (P2Y purinoceptor 2 [3]) [µM] | further results
1 | COc1nc(=O)ccn1[C@@H]1O[C@H](COP(=O)(O)O)[C@@H](O)[C@H]1O | > 100 | 9.8 | 9.9 | –
2 | Nc1ccn([C@H]2C[C@H](O)[C@@H](COP(=O)(O)OP(=O)(O)OP(=O)(O)OP(=O)(O)OC[C@H]3O[C@@H](n4ccc(=O)[nH]c4=O)[C@H](O)[C@@H]3O)O2)c(=O)n1 [DENUFOSOL TETRASODIUM] | – | – | – | EC50 (P2Y purinoceptor 2 [4]): 0.2 µM; EC50 (P2Y purinoceptor 4 [5]): 0.8 µM; EC50 (P2Y purinoceptor 6 [6]): > 1 µM
3 | O=c1[nH]c(=S)ccn1[C@@H]1O[C@H](COP(=O)(O)O)[C@@H](O)[C@H]1O | > 100 | > 100 | > 100 | –
4 | O=c1[nH]c(=S)ccn1[C@@H]1O[C@H](COP(=O)(O)OP(=O)(O)OP(=O)(O)O)[C@@H](O)[C@H]1O | 0.023 | – | 0.026 | EC50 (P2Y purinoceptor 4 [5]): 0.023 µM
5 | CCCSc1nc(=O)ccn1[C@@H]1O[C@H](COP(=O)(O)OP(=O)(O)O)[C@@H](O)[C@H]1O | 4.9 | ≥ 100 | 1.2 | –
6 | Nc1nc(=O)ccn1[C@@H]1O[C@H](COP(=O)(O)O)[C@@H](O)[C@H]1O | – | > 100 | > 100 | Ratio EC50 (Homo sapiens [7]): > 100; Ratio EC50 (Homo sapiens [8]): > 100; Ratio EC50 (Homo sapiens [9]): > 20; Ratio EC50 (Homo sapiens [10]): > 20
7 | O=c1ccn([C@@H]2O[C@H](COP(=O)(O)OP(=O)(O)O)[C@@H](O)[C@H]2O)c(SCCc2ccccc2)n1 | ≥ 100 | 2.5 | 0.544 | –
8 | O=c1ccn([C@@H]2O[C@H](COP(=O)(O)O)[C@@H](O)[C@H]2O)c(SCCc2ccccc2)n1 | > 100 | > 100 | 1.3 | Ratio EC50 (Homo sapiens [7]): > 100; Ratio EC50 (Homo sapiens [8]): 100
9 | O=c1ccn([C@@H]2O[C@H](COP(=O)(O)OP(=O)(O)C(F)(F)P(=O)(O)O)[C@@H](O)[C@H]2O)c(=O)[nH]1 | > 100 | 2.63 | 4.9 | Ratio EC50 (Homo sapiens [8]): 2
10 | CCCSc1nc(=O)ccn1[C@@H]1O[C@H](COP(=O)(O)O)[C@@H](O)[C@H]1O | > 100 | 6.2 | 4.8 | –
11 | O=C(Cn1c(=O)ccn([C@@H]2O[C@H](COP(=O)(O)OP(=O)(O)C(Cl)(Cl)P(=O)(O)O)[C@@H](O)[C@H]2O)c1=O)c1ccccc1 | 7.3 | 0.142 | 0.826 | Ratio EC50 (Homo sapiens [11]): 6; Ratio EC50 (Homo sapiens [12]): 50
12 | O=c1ccn([C@@H]2O[C@H](COP(=O)(O)OP(=O)(O)C(Cl)(Cl)P(=O)(O)O)[C@@H](O)[C@H]2O)c(=O)[nH]1 | ≥ 100 | 6.2 | 0.612 | –
13 | CNc1nc(=O)ccn1[C@@H]1O[C@H](COP(=O)(O)OP(=O)(O)O)[C@@H](O)[C@H]1O | ≥ 100 | > 100 | 7.6 | –
14 | O=c1ccn([C@@H]2O[C@H](COP(=O)(O)OP(=O)(O)OP(=O)(O)OP(=O)(O)OC[C@H]3O[C@@H](n4ccc(=O)[nH]c4=O)[C@H](O)[C@@H]3O)[C@@H](O)[C@H]2O)c(=O)[nH]1 [DIQUAFOSOL TETRASODIUM] | – | – | – | EC50 (P2Y purinoceptor 4 [5]): 0.4 µM; EC50 (P2Y purinoceptor 6 [6]): 2 µM

More lines, main results first:

Row | EC50 (P2Y purinoceptor 4 [1]) [µM] | EC50 (P2Y purinoceptor 6 [2]) [µM] | EC50 (P2Y purinoceptor 2 [3]) [µM] | Compound | further results
15 | ≥ 100 | ≥ 100 | 0.604 | Nc1nc(=O)ccn1[C@@H]1O[C@H](COP(=O)(O)OP(=O)(O)O)[C@@H](O)[C@H]1O | Ratio EC50 (Homo sapiens [7]): > 100; Ratio EC50 (Homo sapiens [8]): > 100
16 | 3.93 | 1.46 | 1.2 | O=C(Cn1c(=O)ccn([C@@H]2O[C@H](COP(=O)(O)OP(=O)(O)C(F)(F)P(=O)(O)O)[C@@H](O)[C@H]2O)c1=O)c1ccccc1 | –
17 | 3.85 | 7.7 | 0.794 | O=c1ccn([C@@H]2O[C@H](COP(=O)(O)OP(=O)(O)C(Cl)(Cl)P(=O)(O)O)[C@@H](O)[C@H]2O)c(=S)[nH]1 | –
18 | > 100 | > 100 | ≥ 100 | O=c1ccn([C@@H]2O[C@H](COP(=O)(O)O)[C@@H](O)[C@H]2O)c(SCc2ccccc2)n1 | –
19 | > 100 | 6.1 | 1.8 | O=c1[nH]c(=O)n([C@@H]2O[C@H](COP(=O)(O)OP(=O)(O)OP(=O)(O)Nc3ccccc3)[C@@H](O)[C@H]2O)cc1Br | –
20 | 9.3 | 7 | 0.134 | O=c1[nH]c(=S)ccn1[C@@H]1O[C@H](COP(=O)(O)OP(=O)(O)C(F)(F)P(=O)(O)O)[C@@H](O)[C@H]1O | Ratio EC50 (Homo sapiens [7]): > 60; Ratio EC50 (Homo sapiens [8]): > 60
21 | 5.98 | 6.8 | 6.2 | O=c1ccn([C@@H]2O[C@H](COP(=O)(O)OP(=O)(O)O)[C@@H](O)[C@H]2O)c(SCc2ccccc2)n1 | –
22 | > 100 | > 100 | > 100 | CNc1nc(=O)ccn1[C@@H]1O[C@H](COP(=O)(O)O)[C@@H](O)[C@H]1O | –
23 | 4.49 | 1.37 | 0.907 | COc1nc(=O)ccn1[C@@H]1O[C@H](COP(=O)(O)OP(=O)(O)O)[C@@H](O)[C@H]1O | –
24 | 14 | 0.048 | 16.5 | O=c1ccn([C@@H]2O[C@H](COP(=O)(O)OP(=O)(O)O)[C@@H](O)[C@H]2O)c(=O)[nH]1 [URIDINE_DIPHOSPHATE] | –
25 | 7.87 | 8.1 | 1.81 | O=c1[nH]c(=S)ccn1[C@@H]1O[C@H](COP(=O)(O)OP(=O)(O)C(Cl)(Cl)P(=O)(O)O)[C@@H](O)[C@H]1O | –
26 | > 100 | > 100 | 2.9 | CSc1nc(=O)ccn1[C@@H]1O[C@H](COP(=O)(O)O)[C@@H](O)[C@H]1O | –
27 | 4.33 | > 100 | 1.5 | CCSc1nc(=O)ccn1[C@@H]1O[C@H](COP(=O)(O)O)[C@@H](O)[C@H]1O | –
28 | 0.0884 | – | 0.0179 | O=c1ccn([C@@H]2O[C@H](COP(=O)(O)OP(=O)(O)OP(=O)(O)O)[C@@H](O)[C@H]2O)c(=O)[nH]1 [URIDINE TRIPHOSPHATE] | –
29 | 1.52 | 4.7 | 0.523 | CSc1nc(=O)ccn1[C@@H]1O[C@H](COP(=O)(O)OP(=O)(O)O)[C@@H](O)[C@H]1O | Ratio EC50 (P2Y purinoceptor 2 [13]): 33

— ChEMBL document CHEMBL1765086, “Structural modifications of UMP, UDP, and UTP leading to subtype-selective agonists for P2Y2, P2Y4, and P2Y6 receptors” (J Med Chem, 2011)
